Experimental data as given in PubChem BioAssay AID2060503 (Molecular Pharmacology Branch, DTP, NCI, 2025).

Test system: 817829-284-R-J1-PDC complex spheroids, viability
Assay: Anticancer human tumor 817829-284-R-J1-PDC patient-derived colon adenocarcinoma cell line growth inhibition [GQUAD]
Settings: for IC50: curve of first compound; for viability, T/C: stronger effect = lower value
Summary of the method: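 Tumor cells were grown as complex spheroids with HUVEC endothelial cells and mesenchymal stem cells as stroma. G-quadruplex stabilizers were combined with targeted agents over half-log dilutions from near the clinical Cmax, or from 10 microM.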
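Further: spheroids exposed to agents for 7 days before readout.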
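Wherever viability, T/C is given: percent viability relative to DMSO vehicle control taken as 100%.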

CCc1c2c(nc3ccc(O)cc13)-c1cc3c(c(=O)n1C2)COC(=O)[C@]3(O)CC + Cc1cnc(CNC(=O)c2c(=O)c3ccc(N4CCCN(C)CC4)nc3n3c2sc2ccccc23)cn1
IC50 (second compound 0.0316 µM): < 0.999 nM | IC50 (second compound 0.1 µM): < 0.999 nM | IC50 (second compound 0.316 µM): < 0.999 nM | IC50 (second compound 1 µM): < 0.999 nM | IC50 (second compound 3.16 µM): < 0.999 nM | IC50 (second compound 10 µM): < 0.999 nM | viability, T/C (second compound 0.0316 µM, first compound 0.000999 µM): 40.3% | viability, T/C (second compound 0.0316 µM, first compound 0.00316 µM): 25.9% | viability, T/C (second compound 0.0316 µM, first compound 0.00999 µM): 28.9% | viability, T/C (second compound 0.0316 µM, first compound 0.0316 µM): 14.1% | viability, T/C (second compound 0.0316 µM, first compound 0.0999 µM): 8.12% | viability, T/C (second compound 0.0316 µM, first compound 0.316 µM): 3.77% | viability, T/C (second compound 0.1 µM, first compound 0.000999 µM): 33.5% | viability, T/C (second compound 0.1 µM, first compound 0.00316 µM): 29.6% | viability, T/C (second compound 0.1 µM, first compound 0.00999 µM): 18.2% | viability, T/C (second compound 0.1 µM, first compound 0.0316 µM): 15.5% | viability, T/C (second compound 0.1 µM, first compound 0.0999 µM): 6.99% | viability, T/C (second compound 0.1 µM, first compound 0.316 µM): 2.92% | viability, T/C (second compound 0.316 µM, first compound 0.000999 µM): 21.6% | viability, T/C (second compound 0.316 µM, first compound 0.00316 µM): 27.2% | viability, T/C (second compound 0.316 µM, first compound 0.00999 µM): 22% | viability, T/C (second compound 0.316 µM, first compound 0.0316 µM): 14.4% | viability, T/C (second compound 0.316 µM, first compound 0.0999 µM): 7.47% | viability, T/C (second compound 0.316 µM, first compound 0.316 µM): 2.52% | viability, T/C (second compound 1 µM, first compound 0.000999 µM): 19.5% | viability, T/C (second compound 1 µM, first compound 0.00316 µM): 25.2% | viability, T/C (second compound 1 µM, first compound 0.00999 µM): 17.8% | viability, T/C (second compound 1 µM, first compound 0.0316 µM): 13.5% | viability, T/C (second compound 1 µM, first compound 0.0999 µM): 6.88% | viability, T/C (second compound 1 µM, first compound 0.316 µM): 0.52% | viability, T/C (second compound 3.16 µM, first compound 0.000999 µM): 20.3% | viability, T/C (second compound 3.16 µM, first compound 0.00316 µM): 17.8% | viability, T/C (second compound 3.16 µM, first compound 0.00999 µM): 15.5% | viability, T/C (second compound 3.16 µM, first compound 0.0316 µM): 10.7% | viability, T/C (second compound 3.16 µM, first compound 0.0999 µM): 3.99% | viability, T/C (second compound 3.16 µM, first compound 0.316 µM): 0.15% | viability, T/C (second compound 10 µM, first compound 0.000999 µM): 0.09% | viability, T/C (second compound 10 µM, first compound 0.00316 µM): 0.14% | viability, T/C (second compound 10 µM, first compound 0.00999 µM): 0.17% | viability, T/C (second compound 10 µM, first compound 0.0316 µM): 0.14% | viability, T/C (second compound 10 µM, first compound 0.0999 µM): 0.16% | viability, T/C (second compound 10 µM, first compound 0.316 µM): 0.16%
